Biological target: JAK1 (Homo sapiens, UniProt P23458)
Assay: JAK1 binding affinity
From the text: An exemplary conjugation of JAK1 inhibitor Target-007 to a dendrimer is shown below (Structure XXXIII). JAK1 binding affinity of Target-007 is about […] and the binding affinity of dendrimer conjugated Target-007 is about […].

Chain of JAK1 (P23458 whole entry, species assumed): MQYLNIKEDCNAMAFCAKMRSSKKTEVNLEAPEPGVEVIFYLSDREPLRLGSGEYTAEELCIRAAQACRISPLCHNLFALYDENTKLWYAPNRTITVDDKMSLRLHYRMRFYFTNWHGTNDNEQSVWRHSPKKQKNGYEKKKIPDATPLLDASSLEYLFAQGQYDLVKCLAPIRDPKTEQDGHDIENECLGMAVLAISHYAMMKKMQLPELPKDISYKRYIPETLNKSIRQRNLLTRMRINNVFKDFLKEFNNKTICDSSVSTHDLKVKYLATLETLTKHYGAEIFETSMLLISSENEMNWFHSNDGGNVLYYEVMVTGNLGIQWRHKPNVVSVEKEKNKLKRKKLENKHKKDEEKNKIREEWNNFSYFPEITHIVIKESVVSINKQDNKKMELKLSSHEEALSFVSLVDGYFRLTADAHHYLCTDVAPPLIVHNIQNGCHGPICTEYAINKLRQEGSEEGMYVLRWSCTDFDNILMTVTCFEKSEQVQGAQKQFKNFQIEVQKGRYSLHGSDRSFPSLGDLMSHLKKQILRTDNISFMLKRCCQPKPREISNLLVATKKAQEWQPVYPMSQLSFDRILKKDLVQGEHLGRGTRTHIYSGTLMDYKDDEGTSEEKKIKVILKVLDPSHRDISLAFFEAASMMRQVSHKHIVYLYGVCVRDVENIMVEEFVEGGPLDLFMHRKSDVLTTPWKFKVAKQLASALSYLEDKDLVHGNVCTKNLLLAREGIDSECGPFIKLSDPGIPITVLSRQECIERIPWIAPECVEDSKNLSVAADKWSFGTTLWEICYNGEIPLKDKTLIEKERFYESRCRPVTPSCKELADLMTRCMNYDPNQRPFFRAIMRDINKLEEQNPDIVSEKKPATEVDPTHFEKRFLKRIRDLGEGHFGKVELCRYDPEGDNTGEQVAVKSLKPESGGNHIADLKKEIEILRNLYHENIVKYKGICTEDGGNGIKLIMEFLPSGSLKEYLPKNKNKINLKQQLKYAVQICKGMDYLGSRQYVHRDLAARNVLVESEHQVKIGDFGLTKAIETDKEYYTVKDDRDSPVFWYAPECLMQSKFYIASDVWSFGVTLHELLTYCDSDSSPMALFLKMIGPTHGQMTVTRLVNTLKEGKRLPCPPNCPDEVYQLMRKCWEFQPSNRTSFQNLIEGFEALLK

Kd: ~1 nM
SMILES: COc1cc(-c2nc3c(NCC4CCNCC4)c(Cl)cnc3[nH]2)c(F)cc1OCCOCCOCCOCCN=[N+]=[N-] [Target-007]

— patent US20230226199A1, “DENDRIMER COMPOSITIONS AND METHODS FOR DRUG DELIVERY” (Ashvattha Therapeutics, Inc., priority 2019, published 2023)
